In US20240190851A1, “FURAN FUSED RING-SUBSTITUTED GLUTARIMIDE COMPOUND” (MEDSHINE DISCOVERY INC., priority 2021, published 2024):
Where a name gives a salt, the structure may show the parent alone.

What was measured:
[1] = molecular target: T1, AR F876L (Homo sapiens, UniProt P10275, F877L); experiment: In cell western of AR protein in 293T AR F876L cells; format: cell-based; settings: AR degradation, 48 hours
T1 construct: expressed in transfected cells; host or cells: 293T AR F876L
T1 sequence (P10275 1-920 F877L): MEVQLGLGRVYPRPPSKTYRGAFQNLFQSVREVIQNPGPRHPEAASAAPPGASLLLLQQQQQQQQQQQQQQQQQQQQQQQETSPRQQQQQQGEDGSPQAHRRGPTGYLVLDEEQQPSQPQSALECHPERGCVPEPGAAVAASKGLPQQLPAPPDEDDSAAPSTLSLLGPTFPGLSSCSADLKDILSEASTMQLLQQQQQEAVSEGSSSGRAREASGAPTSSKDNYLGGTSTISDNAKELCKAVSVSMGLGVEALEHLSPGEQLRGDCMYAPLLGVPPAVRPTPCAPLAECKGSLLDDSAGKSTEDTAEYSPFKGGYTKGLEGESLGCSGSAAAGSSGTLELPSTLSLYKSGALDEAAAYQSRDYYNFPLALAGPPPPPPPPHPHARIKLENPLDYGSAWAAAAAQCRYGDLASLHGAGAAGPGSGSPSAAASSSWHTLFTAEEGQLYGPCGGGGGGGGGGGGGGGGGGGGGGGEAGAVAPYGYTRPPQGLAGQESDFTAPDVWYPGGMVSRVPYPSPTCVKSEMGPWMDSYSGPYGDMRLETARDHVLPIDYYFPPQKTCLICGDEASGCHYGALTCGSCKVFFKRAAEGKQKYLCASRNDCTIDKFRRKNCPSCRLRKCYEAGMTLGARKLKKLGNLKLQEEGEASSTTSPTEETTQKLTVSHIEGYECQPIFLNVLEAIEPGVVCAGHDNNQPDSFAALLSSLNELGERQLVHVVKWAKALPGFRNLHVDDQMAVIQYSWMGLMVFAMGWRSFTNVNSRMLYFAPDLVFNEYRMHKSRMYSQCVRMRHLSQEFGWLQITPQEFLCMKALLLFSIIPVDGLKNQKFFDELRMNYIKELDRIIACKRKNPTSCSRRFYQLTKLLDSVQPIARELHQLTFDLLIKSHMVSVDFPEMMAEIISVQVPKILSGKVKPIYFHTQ
Procedure: Experimental purpose: In this experiment, the effects of compounds WX015, WX016, and WX017 on the expression level of AR protein with point mutation in cell line 293T AR F876L were detected by in cell western assay to evaluate the degradation effect of compounds on proteins with AR F876L point mutation.
The cell line was cultured in a 37° C., 5% CO2 incubator. Regular passage, and cells in logarithmic growth phase were taken for plating.
2. Cell Plating: • 1) Cells were stained with trypan blue and viable cells were counted. • 2) The cell concentration was adjusted to an appropriate concentration with a density of 20000/well. • 3) 90 μL of cell suspension per well was added to a 96-well culture plate, and cell-free culture medium was added to the blank control well. • 4) The culture plate was cultured overnight in a 37° C., 5% CO2 incubator with 100% relative humidity.
3. […]
Relative quantification of the density intensity of immunoblot chemiluminescence bands was performed using Image Studio Ver 5.2 software.

[2] = system: human prostate cancer LNCaP xenograft tumor; experiment: In vivo pharmacodynamic study, LNCaP subcutaneous xenograft tumor CB-17 SCID model; design: species or system CB-17 SCID mice; settings: WX002 30 mg/kg (D0-D3), 50 mg/kg (D4-D21) p.o. BID
Procedure: Human prostate cancer LNCaP cells (ECACC-89110211) were cultured in vitro in a monolayer under the culture conditions of RPMI-1640 medium with 10% fetal bovine serum, […], and 100 μg/mL streptomycin, and cultured in a 37° C., 5% CO2 incubator.
Routine digestion with trypsin-EDTA was performed twice a week for passaging. When the cell saturation density was 80% to 90% and the number of cells reached the required level, the cells were collected, counted, and inoculated.
CB-17 SCID mice, 6 to 8 weeks old, male, weighing 18 to 22 g.
0.2 mL (1×10^7) of LNCaP cells (with matrix gel, volume ratio of 1:1) were subcutaneously inoculated on the right back of each mouse. The mice were subjected to surgical castration when the average tumor volume reached approximately 80 mm^3, and grouping and administration were initiated when the average tumor volume reached 166 mm^3.
Tumor diameters were measured twice a week with a vernier caliper. The formula for calculating tumor volume was: V=0.5a×b^2, wherein a and b represented the long and short diameters of the tumor, respectively.
The antitumor efficacy of compounds was evaluated by TGI (%). TGI (%) reflected the tumor growth inhibition rate. TGI (0%)=[(1−(average tumor volume at the end of administration in a treatment group−average tumor volume at the beginning of administration in this treatment group))/(average tumor volume at the end of treatment in the vehicle control group−average tumor volume at the beginning of treatment in the vehicle control group)]×100%.

Row | Compound | DC50 [1] | Dmax ([1]; HEK-293T) | Tumor volume (Day 0) ([2]; Day 0, start of administration) | TGI (Day 21) ([2]; Day 21) | Tumor volume (Day 21) ([2]; Day 21)
1 | N#Cc1ccc(O[C@H]2CC[C@H](NC(=O)c3ccc(N4CCC(CN5CCN(c6cccc7c6ccc6occ(C8CCC(=O)NC8=O)c67)CC5)CC4)nn3)CC2)cc1Cl (some centres unmarked) [Hydrochloride of WX015] | 43 nM | 85% |  |  | 
2 | CC1(C)C(=O)N(c2ccc(C#N)c(C(F)(F)F)c2)C(=S)N1c1ccc(OCCN2CCN(CC(=O)Nc3ccc4c(C5CCC(=O)NC5=O)coc4c3)CC2)c(F)c1 (centres unmarked) [WX002] |  |  | 166 ± 18 mm^3 | 89.1% | 219 ± 39 mm^3
